Reference: PubChem BioAssay (NCI)
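Briefly, cells in 96-well plates were exposed to five compound concentrations for 48 h, and endpoints were estimated by linear interpolation. TGI marks complete inhibition of growth.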

Tests used:
Assay in all cases: inhibition of tumour cell growth, NCI panel, 48 h
786-0 renal = test system: 786-0 renal
A549 NSCLC = test system: A549 NSCLC
ACHN renal = test system: ACHN renal
BT-549 breast = test system: BT-549 breast
CCRF-CEM leukemia = test system: CCRF-CEM leukemia
COLO 205 colon = test system: COLO 205 colon
DU-145 prostate = test system: DU-145 prostate
EKVX NSCLC = test system: EKVX NSCLC
HCC-2998 colon = test system: HCC-2998 colon
HCT-116 colon = test system: HCT-116 colon
HCT-15 colon = test system: HCT-15 colon
HL-60(TB) leukemia = test system: HL-60(TB) leukemia
HOP-62 NSCLC = test system: HOP-62 NSCLC
HS 578T breast = test system: HS 578T breast
HT29 colon = test system: HT29 colon
IGROV1 ovarian = test system: IGROV1 ovarian
K-562 leukemia = test system: K-562 leukemia
KM12 colon = test system: KM12 colon
LOX IMVI melanoma = test system: LOX IMVI melanoma
M14 melanoma = test system: M14 melanoma
MALME-3M melanoma = test system: MALME-3M melanoma
MCF7 breast = test system: MCF7 breast
MDA-MB-231 breast = test system: MDA-MB-231 breast
MDA-MB-435 = test system: MDA-MB-435
MDA-N = test system: MDA-N
MOLT-4 leukemia = test system: MOLT-4 leukemia
NCI-H226 lung = test system: NCI-H226 lung
NCI-H23 lung = test system: NCI-H23 lung
NCI-H460 lung = test system: NCI-H460 lung
NCI/ADR-RES ovarian = test system: NCI/ADR-RES ovarian
OVCAR-3 ovarian = test system: OVCAR-3 ovarian
OVCAR-4 ovarian = test system: OVCAR-4 ovarian
OVCAR-5 ovarian = test system: OVCAR-5 ovarian
OVCAR-8 ovarian = test system: OVCAR-8 ovarian
PC-3 prostate = test system: PC-3 prostate
RPMI-8226 leukemia = test system: RPMI-8226 leukemia
RXF 393 renal = test system: RXF 393 renal
SF-268 CNS = test system: SF-268 CNS
SF-295 CNS = test system: SF-295 CNS
SF-539 CNS = test system: SF-539 CNS
SK-MEL-2 melanoma = test system: SK-MEL-2 melanoma
SK-MEL-28 melanoma = test system: SK-MEL-28 melanoma
SK-MEL-5 melanoma = test system: SK-MEL-5 melanoma
SK-OV-3 ovarian = test system: SK-OV-3 ovarian
SN12C renal = test system: SN12C renal
SNB-19 CNS = test system: SNB-19 CNS
SNB-75 CNS = test system: SNB-75 CNS
SR leukemia = test system: SR leukemia
SW-620 colon = test system: SW-620 colon
T-47D breast = test system: T-47D breast
TK-10 renal = test system: TK-10 renal
U251 CNS = test system: U251 CNS
UACC-257 melanoma = test system: UACC-257 melanoma
UACC-62 melanoma = test system: UACC-62 melanoma
UO-31 renal = test system: UO-31 renal
A498 renal = test system: A498 renal
CAKI-1 renal = test system: CAKI-1 renal
HOP-92 NSCLC = test system: HOP-92 NSCLC
NCI-H522 lung = test system: NCI-H522 lung

## CCOP(=O)(OCC)C(C)(CC)/N=C(\N)NC#N (stereo unspecified)
786-0 renal
  TGI: > 100 µM
A549 NSCLC
  TGI: > 100 µM
ACHN renal
  TGI: > 100 µM
BT-549 breast
  TGI: > 100 µM
CCRF-CEM leukemia
  TGI: > 100 µM
COLO 205 colon
  TGI: > 100 µM
DU-145 prostate
  TGI: > 100 µM
EKVX NSCLC
  TGI: > 100 µM
HCC-2998 colon
  TGI: > 100 µM
HCT-116 colon
  TGI: > 100 µM
HCT-15 colon
  TGI: > 100 µM
HL-60(TB) leukemia
  TGI: > 100 µM
HOP-62 NSCLC
  TGI: > 100 µM
HS 578T breast
  TGI: > 100 µM
HT29 colon
  TGI: > 100 µM
IGROV1 ovarian
  TGI: > 100 µM
K-562 leukemia
  TGI: > 100 µM
KM12 colon
  TGI: > 100 µM
LOX IMVI melanoma
  TGI: > 100 µM
M14 melanoma
  TGI: > 100 µM
MALME-3M melanoma
  TGI: > 100 µM
MCF7 breast
  TGI: > 100 µM
MDA-MB-231 breast
  TGI: > 100 µM
MDA-MB-435
  TGI: > 100 µM
MDA-N
  TGI: > 100 µM
MOLT-4 leukemia
  TGI: > 100 µM
NCI-H226 lung
  TGI: > 100 µM
NCI-H23 lung
  TGI: > 100 µM
NCI-H460 lung
  TGI: > 100 µM
NCI/ADR-RES ovarian
  TGI: > 100 µM
OVCAR-3 ovarian
  TGI: > 100 µM
OVCAR-4 ovarian
  TGI: > 100 µM
OVCAR-5 ovarian
  TGI: > 100 µM
OVCAR-8 ovarian
  TGI: > 100 µM
PC-3 prostate
  TGI: > 100 µM
RPMI-8226 leukemia
  TGI: > 100 µM
RXF 393 renal
  TGI: > 100 µM
SF-268 CNS
  TGI: > 100 µM
SF-295 CNS
  TGI: > 100 µM
SF-539 CNS
  TGI: > 100 µM
SK-MEL-2 melanoma
  TGI: > 100 µM
SK-MEL-28 melanoma
  TGI: > 100 µM
SK-MEL-5 melanoma
  TGI: > 100 µM
SK-OV-3 ovarian
  TGI: > 100 µM
SN12C renal
  TGI: > 100 µM
SNB-19 CNS
  TGI: > 100 µM
SNB-75 CNS
  TGI: > 100 µM
SR leukemia
  TGI: > 100 µM
SW-620 colon
  TGI: > 100 µM
T-47D breast
  TGI: > 100 µM
TK-10 renal
  TGI: > 100 µM
U251 CNS
  TGI: > 100 µM
UACC-257 melanoma
  TGI: > 100 µM
UACC-62 melanoma
  TGI: > 100 µM
UO-31 renal
  TGI: > 100 µM

## COC(=O)C1=C(C)NC2=C(C(=O)c3ccccc32)C1c1cn[nH]c1-c1ccccc1 (stereo unspecified)
786-0 renal
  TGI: > 100 µM
A498 renal
  TGI: > 100 µM
A549 NSCLC
  TGI: > 100 µM
ACHN renal
  TGI: > 100 µM
BT-549 breast
  TGI: > 100 µM
CAKI-1 renal
  TGI: > 100 µM
CCRF-CEM leukemia
  TGI: > 100 µM
COLO 205 colon
  TGI: 52 µM
DU-145 prostate
  TGI: > 100 µM
EKVX NSCLC
  TGI: > 100 µM
HCT-116 colon
  TGI: > 100 µM
HCT-15 colon
  TGI: > 100 µM
HL-60(TB) leukemia
  TGI: > 100 µM
HOP-62 NSCLC
  TGI: > 100 µM
HOP-92 NSCLC
  TGI: > 100 µM
HS 578T breast
  TGI: > 100 µM
HT29 colon
  TGI: > 100 µM
IGROV1 ovarian
  TGI: > 100 µM
K-562 leukemia
  TGI: > 100 µM
KM12 colon
  TGI: > 100 µM
M14 melanoma
  TGI: > 100 µM
MALME-3M melanoma
  TGI: > 100 µM
MCF7 breast
  TGI: > 100 µM
MDA-MB-231 breast
  TGI: > 100 µM
MDA-MB-435
  TGI: > 100 µM
MDA-N
  TGI: > 100 µM
MOLT-4 leukemia
  TGI: > 100 µM
NCI-H226 lung
  TGI: > 100 µM
NCI-H23 lung
  TGI: > 100 µM
NCI-H460 lung
  TGI: > 100 µM
NCI-H522 lung
  TGI: > 100 µM
NCI/ADR-RES ovarian
  TGI: > 100 µM
OVCAR-3 ovarian
  TGI: > 100 µM
OVCAR-4 ovarian
  TGI: > 100 µM
OVCAR-5 ovarian
  TGI: > 100 µM
OVCAR-8 ovarian
  TGI: > 100 µM
PC-3 prostate
  TGI: > 100 µM
RPMI-8226 leukemia
  TGI: > 100 µM
RXF 393 renal
  TGI: > 100 µM
SF-268 CNS
  TGI: > 100 µM
SF-295 CNS
  TGI: > 100 µM
SF-539 CNS
  TGI: > 100 µM
SK-MEL-2 melanoma
  TGI: > 100 µM
SK-MEL-28 melanoma
  TGI: > 100 µM
SK-MEL-5 melanoma
  TGI: > 100 µM
SK-OV-3 ovarian
  TGI: > 100 µM
SN12C renal
  TGI: > 100 µM
SNB-19 CNS
  TGI: > 100 µM
SNB-75 CNS
  TGI: > 100 µM
SR leukemia
  TGI: 87.4 µM
SW-620 colon
  TGI: > 100 µM
T-47D breast
  TGI: > 100 µM
U251 CNS
  TGI: > 100 µM
UACC-257 melanoma
  TGI: > 100 µM
UACC-62 melanoma
  TGI: > 100 µM
UO-31 renal
  TGI: > 100 µM
